The results in this text go back to ChEMBL document CHEMBL4699665, “Discovery of ANT3310, a Novel Broad-Spectrum Serine β-Lactamase Inhibitor of the Diazabicyclooctane Class, Which Strongly Potentiates Meropenem Activity against Carbapenem-Resistant Enterobacterales and Acinetobacter baumannii” (J Med Chem, 2020).

One may read the IC50 as the point on the concentration scale where inhibition reaches its midpoint. The term fraction unbound denotes free concentration divided by total concentration. The term CC50 denotes the concentration at which the toxic effect on the cells reaches its halfway point. Higher therefore signals better tolerance by the cells. What is called clearance is a measure of how efficiently the substance is removed, as volume per time. A high value points to efficient removal.

Series [1] in a line: Inhibition of beta lactamase OXA-48 in Enterobacter cloacae assessed as decrease in enzyme activity using nitrocefin as substrate preincubated for 10 mins followed by substrate addition measured for 10 mins by fluorescence plate reader analysis.
For series [2], the system named is Enterobacter cloacae. Kind of series: Potentiation of meropenem-induced antibacterial activity against Enterobacter cloacae expressing TEM-1/KPC-2 assessed as meropenem MIC at 4 ug/ml by broth microdilution method (reference value: 8 ug/ml). It is filed as functional. The settings on record: dose 4 µg/ml.
Series [3] relates to Klebsiella pneumoniae. Kind of series: Antibacterial activity against Klebsiella pneumoniae expressing SHV-11/OXA-181 by broth microdilution method. It is filed as functional.
Series [4] concerns Enterobacter. Kind of series: Inhibition of beta lactamase KPC in carbapenem-resistant Enterobacter assessed as meropenem minimum concentration required for antibacterial activity at 4 ug/ml by broth microdilution method (reference value: 4 ug/ml). The settings on record: dose 4.0 µg/ml.
The test system of series [5] is Enterobacter. The series is described as follows: Inhibition of beta lactamase OXA in carbapenem-resistant Enterobacter assessed as meropenem-induced antibacterial activity by measuring meropenem MIC50 at 4 ug/ml by broth microdilution method (reference value: 16 ug/ml). Particulars: dose 4.0 µg/ml. On the technique in general: In broth dilution the organism is exposed to a series of concentrations in liquid medium.

Series [6] has as its system Enterobacter. Kind of series: Inhibition of beta lactamase OXA in carbapenem-resistant Enterobacter assessed as meropenem-induced antibacterial activity by measuring meropenem MIC 90 at 4 ug/ml by broth microdilution method (Rvb >32 ug/ml). Particulars: dose 4.0 µg/ml.
Series [7] deals with Enterobacter. Kind of series: Inhibition of beta lactamase OXA in carbapenem-resistant Enterobacter assessed as meropenem maximum concentration required for antibacterial activity at 4 ug/ml by broth microdilution method (Rvb > 32 ug/ml). The settings on record: dose 4.0 µg/ml.
The subject of series [8] is Acinetobacter baumannii. The series is described as follows: Inhibition of beta lactamase OXA in carbapenem-resistant Acinetobacter baumannii assessed as meropenem minimum concentration required for antibacterial activity at 4 ug/ml by broth microdilution method (reference value: 8 ug/ml). Particulars: dose 4.0 µg/ml.
Series [9] is described as follows: Stability in mouse plasma assessed as parent compound remaining after 1 hr. The format is ADME, cell-free. Particulars: read-out: Stabilty.
A short description of series [10]: Stability in dog plasma assessed as parent compound remaining after 1 hr. It is filed as ADME, cell-free, Canis lupus familiaris. The settings on record: read-out: Stabilty.
The nature of series [11]: Intrinsic clearance in mouse hepatocytes assessed per million cells. It is filed as ADME, cell-based, Hepatocyte. The settings on record: read-out: CLH.
Series [12] can be described thus: Intrinsic clearance in rat hepatocytes assessed per million cells. It is filed as ADME, cell-based, Hepatocyte. The settings on record: read-out: CLH.
Series [13] can be described thus: Intrinsic clearance in human hepatocytes assessed per million cells. The format is ADME, cell-based, Hepatocyte. Particulars: read-out: CLH.
Series [14] is described as follows: Plasma protein binding in mouse assessed as fraction unbound by LC-MS/MS analysis. It is filed as ADME, cell-free.
Series [15] deals with Cytochrome P450 2C19 (Homo sapiens, UniProt P33261). Kind of series: Inhibition of CYP2C19 in human liver microsomes in presence of NADPH by LC-MS/MS analysis. It is filed as ADME. For orientation: Liver microsomes are vesicles of endoplasmic reticulum, rich in cytochrome P450 enzymes.
Sequence of Cytochrome P450 2C19 (P33261 whole entry): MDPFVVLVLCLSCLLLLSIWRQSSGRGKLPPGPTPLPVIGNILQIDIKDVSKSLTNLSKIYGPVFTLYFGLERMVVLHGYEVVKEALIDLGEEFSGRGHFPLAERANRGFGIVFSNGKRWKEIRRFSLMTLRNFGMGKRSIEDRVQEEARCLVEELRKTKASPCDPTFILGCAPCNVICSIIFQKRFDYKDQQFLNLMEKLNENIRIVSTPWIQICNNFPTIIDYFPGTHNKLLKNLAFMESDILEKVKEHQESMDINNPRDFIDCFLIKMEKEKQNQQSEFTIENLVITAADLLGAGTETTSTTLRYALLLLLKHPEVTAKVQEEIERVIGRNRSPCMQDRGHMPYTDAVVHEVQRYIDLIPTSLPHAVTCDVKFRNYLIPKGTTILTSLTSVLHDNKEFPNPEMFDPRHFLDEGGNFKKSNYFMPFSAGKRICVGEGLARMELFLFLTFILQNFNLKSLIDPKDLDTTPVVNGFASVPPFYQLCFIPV
Series [16] has as its target Cytochrome P450 2D6 (Homo sapiens, UniProt P10635). Kind of series: Inhibition of CYP2D6 in human liver microsomes in presence of NADPH by LC-MS/MS analysis. The format is ADME.
Series [17] in a line: Cytotoxicity against human HepG2 cells. It is filed as cell-based.
The target of series [18] is Voltage-gated inwardly rectifying potassium channel KCNH2 (Homo sapiens, UniProt Q12809). The series is described as follows: Inhibition of human ERG by patch-clamp assay.
Sequence of Voltage-gated inwardly rectifying potassium channel KCNH2 (Q12809 whole entry): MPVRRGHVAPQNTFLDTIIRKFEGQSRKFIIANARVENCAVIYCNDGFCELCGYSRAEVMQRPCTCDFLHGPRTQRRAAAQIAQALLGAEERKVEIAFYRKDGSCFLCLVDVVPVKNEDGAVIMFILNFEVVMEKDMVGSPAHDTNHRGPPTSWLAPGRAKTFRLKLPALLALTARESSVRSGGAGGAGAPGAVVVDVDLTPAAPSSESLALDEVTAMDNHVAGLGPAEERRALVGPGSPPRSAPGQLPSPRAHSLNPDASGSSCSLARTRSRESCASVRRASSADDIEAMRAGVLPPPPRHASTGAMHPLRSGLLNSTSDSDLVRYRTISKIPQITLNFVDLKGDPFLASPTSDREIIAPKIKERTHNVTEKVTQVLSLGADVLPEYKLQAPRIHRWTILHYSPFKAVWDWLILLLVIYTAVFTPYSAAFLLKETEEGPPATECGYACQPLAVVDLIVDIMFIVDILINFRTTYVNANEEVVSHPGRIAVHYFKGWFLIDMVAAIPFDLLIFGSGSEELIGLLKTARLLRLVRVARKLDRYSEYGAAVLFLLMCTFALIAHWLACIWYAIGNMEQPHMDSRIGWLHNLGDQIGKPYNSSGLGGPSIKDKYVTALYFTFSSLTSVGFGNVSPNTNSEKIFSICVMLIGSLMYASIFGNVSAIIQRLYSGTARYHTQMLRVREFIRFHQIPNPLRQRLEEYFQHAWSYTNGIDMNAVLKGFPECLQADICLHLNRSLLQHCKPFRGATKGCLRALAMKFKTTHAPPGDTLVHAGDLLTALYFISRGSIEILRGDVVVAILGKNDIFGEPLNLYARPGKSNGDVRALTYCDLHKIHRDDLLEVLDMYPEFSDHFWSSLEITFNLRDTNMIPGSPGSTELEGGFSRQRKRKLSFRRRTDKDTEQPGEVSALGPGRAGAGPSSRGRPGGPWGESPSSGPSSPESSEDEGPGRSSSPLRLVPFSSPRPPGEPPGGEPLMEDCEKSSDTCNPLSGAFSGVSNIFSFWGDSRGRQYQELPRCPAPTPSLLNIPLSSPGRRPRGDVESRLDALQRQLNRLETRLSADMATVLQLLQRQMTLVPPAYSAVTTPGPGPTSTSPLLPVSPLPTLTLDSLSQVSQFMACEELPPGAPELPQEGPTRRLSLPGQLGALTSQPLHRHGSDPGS
Series [19] in a line: Genotoxicity in Salmonella typhimurium by Ames test. It is filed as toxicity. The settings on record: salmonella enterica subsp. enterica serovar typhimurium.
Series [20] in a line: Clearance in rat at 1 mg/kg, iv. The format is ADME, organism-based. Particulars: in vivo.
Series [21] deals with Klebsiella pneumoniae. The series is described as follows: Potentiation of meropenem-induced antibacterial activity against Klebsiella Pneumoniae NR-48977 expressing KPC-2 infected in CD-1 mouse assessed as reduction in bacterial burden co administered with 300 mg/kg, iv meropenem. The format is functional, organism-based. Particulars: dose mg/kg 25-100.

Sequence of Cytochrome P450 2D6 (P10635 whole entry): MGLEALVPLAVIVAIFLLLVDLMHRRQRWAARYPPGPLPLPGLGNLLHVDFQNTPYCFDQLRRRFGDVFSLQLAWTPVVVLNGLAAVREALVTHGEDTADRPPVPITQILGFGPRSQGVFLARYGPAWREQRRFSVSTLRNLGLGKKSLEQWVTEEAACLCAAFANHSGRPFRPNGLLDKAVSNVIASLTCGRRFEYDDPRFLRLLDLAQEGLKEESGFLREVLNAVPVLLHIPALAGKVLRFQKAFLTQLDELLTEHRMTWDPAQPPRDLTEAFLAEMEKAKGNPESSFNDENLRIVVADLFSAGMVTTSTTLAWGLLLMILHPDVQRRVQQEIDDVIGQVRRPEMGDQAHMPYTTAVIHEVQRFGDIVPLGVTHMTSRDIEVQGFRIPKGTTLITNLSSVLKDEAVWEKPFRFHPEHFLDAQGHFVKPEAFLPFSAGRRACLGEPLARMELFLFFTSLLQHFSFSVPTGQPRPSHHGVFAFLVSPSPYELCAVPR

Consider `O=C1N2C[C@@H](CC[C@H]2F)N1OS(=O)(=O)[O-].[Na+]`, for which the half-maximal inhibitory concentration (IC50) in series [1] was 0.175 µM; in series [15] it was greater than 50 µM; in series [16], greater than 50 µM; in series [18], greater than 100 µM. Also, the MIC in series [2] is 0.03 µg/mL; in series [3], 128 µg/mL; in [4], less than 0.03 µg/mL; in series [8], 0.25 µg/mL. For the same molecule, the MIC50 in [5] turned out to be 0.12 µg/mL. Also, in series [6], the MIC90 is 1 µg/mL. Moreover, the Activity in series [7] was 2 µg/mL; in [19], “Non-Toxic”; in series [21] it was “Dose-dependent effect”. Also, the remaining at 1 h in series [9] was 90%; in series [10], 85%. Also, the hepatocyte CLint was less than 3.5 µL/min/1e6 cells in series [11], less than 3.4 µL/min/1e6 cells in series [12] and less than 3.4 µL/min/1e6 cells in [13]. In addition, the free fraction (fraction unbound) in series [14] is greater than 0.93. Besides, the CC50 in [17] is greater than 100 µM. The clearance in [20] was 40 mL/min/kg.
